Measured values published in patent US9082528B2, “Method for making carbon nanotube-loaded electrode, carbon nanotube-loaded electrode made by the method, and applications thereof” (priority 2011, dated 2015).

Tested on: acetylcholine esterase (AChE)
Assay: Electrochemical (CV) inhibition of AChE activity on AChE/ChO/POD/CNT/DEN(PtNP)s-loaded SPCGC electrode
Type: biochemical
Conditions: for I x/Io: anodic peak current, 10 mM phosphate buffer pH 7.4 with ACh
Protocol: AChE, ChO and POD enzymes were adsorbed on CNT/DEN(PtNP)s-loaded SPCGC electrode. The aqueous solution containing AChE/ChO/POD was dropped on the CNT/DEN(PtNP)s-loaded SPCGC surface and the adsorption was allowed to occur for 24 hours. The AChE-ChO-POD-adsorbed CNT/DEN(PtNP)s-loaded (AChE/ChO/POD/CNT/DEN(PtNP)s-loaded) SPCGC DEP chip was stored at 4° C. till use.
Electrochemical detection of a DZN compound on the AChE/ChO/POD/CNT/DEN(PtNP)s-loaded SPCGC electrode was performed on a CV (a Hokuto-Denko HZ-3000) apparatus in the potential range of −0.6 to 1 V at a scan rate of 20 mVs^−1 in a phosphate buffer solution. All the measurements were carried out at room temperature in 2 cm^3 of a test solution, which has to cover the circular working electrode area of the sensors supported vertically during the CV measurement. The anodic oxidation peak at 0.06-0.1 V was used to evaluate the inhibition of AChE activity by DZN. The enzyme inhibition was calculated according to the following equation (Equation 1) (Dounin et al., Analytica Chimica Acta 2010, 669, 63-67): % inhibition=100(Io−Ix)/Io [Equation 1], wherein Io is the anodic peak current of oxidation at 0.06-0.1 V of a control sample in the absence of DZN, while Ix refers to the peak current of DZN-containing samples.
For the electrochemical detection of DZN compound, CNT/DEN(PtNP)s hybrids at M:D 0.4:1 was fabricated onto the SPCGC electrode. Then, an AChE/ChO/POD/CNT/DEN(PtNP)s-loaded SPCGC biosensor was developed by loading 10 mm^3 of 2.21 U of AChE, 4.3 U of ChO and 44.7 U of POD on the CNT/DEN(PtNP)s-loaded SPCGC electrode. The bioactivity of the AChE/ChO/POD/CNT/DEN(PtNP)s-loaded SPCGC biosensor was investigated by CV at room temperature.
The approach for determination of one (DZN) of organophosphate pesticides by this biosensor is based on the inhibition of AChE activity. In the absence of DZN, AChE hydrolyzes Ach to acetic acid and choline (Ch) (Lin et al., Electroanalysis, 2004, 16(1-2), 145-149):
The inhibition of AChE activity by DZN was determined by measuring the oxidation or reduction current of H2O2 which is correlated to the concentration of Ch produced by AChE.
This anodic oxidation peak is attributed to the oxidation of hydrogen peroxide (H2O2) generated from the enzymatic reaction of AChE and ChO. The peak potential of H2O2 oxidation by the present electrode was lower than by an AChE/ChO/CNT electrode (0.50 V) (Lin et al., Electroanalysis, 2004, 16(1-2), 145-149). […] Meanwhile, a very small reduction peak around −0.2 V was also observed at only the first CV scan. This peak is attributed to the reduction of the generated H2O2 by POD. […] Therefore, the inhibition of AChE by DZN can be determined by the decrease in the oxidation current at 0.09 V.
The obtained currents of anodic oxidation peak were utilized to evaluate the enzyme activity, […], and the inhibition value, (Io−Ix)/Io, where Io and Ix are current densities in ACh solutions without and with DZN.

SMILES: CCOP(=S)(OCC)Oc1cc(C)nc(C(C)C)n1 [DZN, O,O-diethyl 0-2-isopropyl-6-methyl(pyrimidine-4-yl)phosphorothioate]
- % Enzyme Activity (DZN 0.05 ppm): 78.6%
- % Inhibition (DZN 0.05 ppm): 21.4%
- [Io-Ix]/Io (DZN 0.05 ppm): 0.214
- I x/Io (DZN 0.05 ppm): 0.785
- % Enzyme Activity (DZN 0.1 ppm): 59.1%
- % Inhibition (DZN 0.1 ppm): 40.9%
- [Io-Ix]/Io (DZN 0.1 ppm): 0.409
- I x/Io (DZN 0.1 ppm): 0.590
- % Enzyme Activity (DZN 0.5 ppm): 52.5%
- % Inhibition (DZN 0.5 ppm): 47.6%
- [Io-Ix]/Io (DZN 0.5 ppm): 0.475
- I x/Io (DZN 0.5 ppm): 0.524
- % Enzyme Activity (DZN 1 ppm): 17.2%
- % Inhibition (DZN 1 ppm): 82.8%
- [Io-Ix]/Io (DZN 1 ppm): 0.828
- I x/Io (DZN 1 ppm): 0.171
- % Enzyme Activity (DZN 5 ppm): 23.2%
- % Inhibition (DZN 5 ppm): 76.8%
- [Io-Ix]/Io (DZN 5 ppm): 0.768
- I x/Io (DZN 5 ppm): 0.231
- % Enzyme Activity (DZN 10 ppm): 13.4%
- % Inhibition (DZN 10 ppm): 86.6%
- [Io-Ix]/Io (DZN 10 ppm): 0.866
- I x/Io (DZN 10 ppm): 0.133
